Reference: patent US12180187B2, “1-phenyl-5-azinylpyrazolyl-3-oxyalkyl acids and their use for controlling unwanted plant growth” (BAYER AKTIENGESELLSCHAFT, priority 2019, dated 2024)

Experiments:
[1] = system: SETVI; experiment: Post-emergence action at 320 g/ha against SETVI; type: in vivo, Setaria viridis; details: visual rating about 3 weeks after treatment vs untreated controls
From the text: (§1) Accordingly, the compounds of the invention have good herbicidal action against a broad spectrum of weed grasses and broad-leaved weeds and are therefore suitable for controlling unwanted vegetation by the post-emergence method. • b) Seeds of monocotyledonous and dicotyledonous weeds and crop plants are placed in sandy loam in plastic or organic planting pots, covered with soil and cultivated in a greenhouse under controlled growth conditions. 2 to 3 weeks after sowing, the test plants are treated at the one-leaf stage. The compounds of the invention, formulated in the form of wettable powders (WP) or as emulsion concentrates (EC), are then sprayed onto the green parts of the plants as aqueous suspension or emulsion with addition of 0.5% additive at a water application rate of 600 l/ha (converted). After the test plants have been kept in the greenhouse under optimum growth conditions for about 3 weeks, the activity of the preparations is rated visually in comparison to untreated controls. For example, 100% activity=the plants have died, 0% activity=like control plants. Tables 39 to 49 below show the effects of selected compounds of the general formula (I) according to Tables 1 and 2 on various harmful plants and at an application rate corresponding to 320 g/ha, which were obtained by the experimental procedure mentioned above.

[2] = system: AMARE; experiment: Post-emergence action against AMARE, 1.28 kg/ha; type: in vivo, Amaranthus retroflexus; details: dosage 1280 g/ha, visual rating about 3 weeks after treatment vs untreated controls (100% = plants died)
Procedure, shortened: (§2)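 Foliar application at the one-leaf stage: compound as WP or EC in water with 0.5% additive, sprayed at 600 L/ha. Plants are kept about 3 weeks in the greenhouse, then % herbicidal action is estimated visually (100% = death).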

[3] = system: POAAN; experiment: Pre-emergence action against POAAN, 1280 g/ha; type: in vivo, Poa annua; details: visual scoring after about 3 weeks vs untreated controls, 100% = plants have died, 0% = like control plants
Procedure, shortened: (§3)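 Percent herbicidal effect, judged by eye relative to untreated pots around 3 weeks after soil-surface treatment. Application: formulated compound in water, 600 L/ha, 0.5% additive, on soil over sown seeds; greenhouse.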

[4] = system: LOLRI; experiment: Post-emergence action against LOLRI, 1.28 kg/ha; type: in vivo, Lolium rigidum; details: dosage 1280 g/ha, visual rating about 3 weeks after treatment vs untreated controls
Procedure, shortened: as §2

[5] = system: STEME; experiment: Pre-emergence action against STEME, 1280 g/ha; type: in vivo, Stellaria media; details: scored visually after about 3 weeks vs untreated controls (100% = plants have died)
Procedure, shortened: as §3

[6] = system: ECHCG; experiment: Post-emergence action at 320 g/ha against ECHCG; type: in vivo, Echinochloa crus-galli; details: dosage 320 g/ha, visual rating about 3 weeks after treatment vs untreated controls (100% = plants died)
From the text: as §1

[7] = system: SETVI; experiment: Pre-emergence action against SETVI, 1280 g/ha; type: in vivo, Setaria viridis; details: visual scoring after about 3 weeks vs untreated controls, 100% = plants have died, 0% = like control plants
Procedure, shortened: as §3

[8] = system: ALOMY; experiment: Post-emergence action against ALOMY, 320 g/ha; type: in vivo, Alopecurus myosuroides; details: dosage 320 g/ha, visual rating about 3 weeks after treatment vs untreated controls (100% = plants died)
From the text: as §1

[9] = system: ALOMY; experiment: Pre-emergence action against ALOMY, 1280 g/ha; type: in vivo, Alopecurus myosuroides; details: visual scoring after about 3 weeks vs untreated controls, 100% = plants have died, 0% = like control plants
Procedure, shortened: as §3

[10] = system: ALOMY; experiment: Post-emergence action against ALOMY, 1.28 kg/ha; type: in vivo, Alopecurus myosuroides; details: dosage 1280 g/ha, visual rating about 3 weeks after treatment vs untreated controls
Procedure, shortened: as §2

[11] = system: DIGSA; experiment: Post-emergence action against DIGSA, 1.28 kg/ha; type: in vivo, Digitaria sanguinalis; details: dosage 1280 g/ha, visual rating about 3 weeks after treatment vs untreated controls
Procedure, shortened: as §2

[12] = system: MATIN; experiment: Pre-emergence action against MATIN, 1280 g/ha; type: in vivo, Tripleurospermum inodorum (Matricaria inodora); details: scored visually after about 3 weeks vs untreated controls (100% = plants have died)
Procedure, shortened: as §3

[13] = system: LOLRI; experiment: Pre-emergence action at 320 g/ha against LOLRI; type: in vivo, Lolium rigidum; details: visual scoring after about 3 weeks vs untreated controls
Procedure, shortened: (§4)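 Effect rated visually (% vs untreated control) about 3 weeks after pre-emergence spraying of WP/EC formulation onto soil; spray carried 0.5% additive at 600 l/ha water.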

[14] = system: VERPE; experiment: Pre-emergence action against VERPE, 1280 g/ha; type: in vivo, Veronica persica; details: scored visually after about 3 weeks vs untreated controls (100% = plants have died)
Procedure, shortened: as §3

[15] = system: ALOMY; experiment: Pre-emergence action at 320 g/ha against ALOMY; type: in vivo, Alopecurus myosuroides; details: scored visually after about 3 weeks vs untreated controls (100% = plants have died)
Procedure, shortened: as §4

[16] = system: AVEFA; experiment: Pre-emergence action at 320 g/ha against AVEFA; type: in vivo; details: visual scoring after about 3 weeks vs untreated controls
Procedure, shortened: as §4

[17] = system: VERPE; experiment: Pre-emergence action at 320 g/ha against VERPE; type: in vivo, Veronica persica; details: visual scoring after about 3 weeks vs untreated controls
Procedure, shortened: as §4

[18] = system: VERPE; experiment: Post-emergence action against VERPE, 1.28 kg/ha; type: in vivo, Veronica persica; details: dosage 1280 g/ha, visual rating about 3 weeks after treatment vs untreated controls (100% = plants died)
Procedure, shortened: as §2

[19] = system: POAAN; experiment: Post-emergence action against POAAN, 1.28 kg/ha; type: in vivo, Poa annua; details: dosage 1280 g/ha, visual rating about 3 weeks after treatment vs untreated controls
Procedure, shortened: as §2

[20] = system: MATIN; experiment: Post-emergence action against MATIN, 1.28 kg/ha; type: in vivo, Tripleurospermum inodorum (Matricaria inodora); details: dosage 1280 g/ha, visual rating about 3 weeks after treatment vs untreated controls (100% = plants died)
Procedure, shortened: as §2

[21] = system: AMARE; experiment: Pre-emergence action against AMARE, 1280 g/ha; type: in vivo, Amaranthus retroflexus; details: scored visually after about 3 weeks vs untreated controls (100% = plants have died)
Procedure, shortened: as §3

[22] = system: LOLRI; experiment: Pre-emergence action against LOLRI, 1280 g/ha; type: in vivo, Lolium rigidum; details: visual scoring after about 3 weeks vs untreated controls, 100% = plants have died, 0% = like control plants
Procedure, shortened: as §3

[23] = system: AMARE; experiment: Pre-emergence action at 320 g/ha against AMARE; type: in vivo, Amaranthus retroflexus; details: visual scoring after about 3 weeks vs untreated controls
Procedure, shortened: as §4

[24] = system: ECHCG; experiment: Post-emergence action against ECHCG, 1.28 kg/ha; type: in vivo, Echinochloa crus-galli; details: dosage 1280 g/ha, visual rating about 3 weeks after treatment vs untreated controls
Procedure, shortened: as §2

[25] = system: ECHCG; experiment: Pre-emergence action against ECHCG, 1280 g/ha; type: in vivo, Echinochloa crus-galli; details: visual scoring after about 3 weeks vs untreated controls, 100% = plants have died, 0% = like control plants
Procedure, shortened: as §3

[26] = system: SETVI; experiment: Post-emergence action against SETVI, 1.28 kg/ha; type: in vivo, Setaria viridis; details: dosage 1280 g/ha, visual rating about 3 weeks after treatment vs untreated controls
Procedure, shortened: as §2

[27] = system: VIOTR; experiment: Pre-emergence action at 320 g/ha against VIOTR; type: in vivo, Viola tricolor; details: dosage 320 g/ha
Procedure, shortened: as §4

[28] = system: DIGSA; experiment: Pre-emergence action at 320 g/ha against DIGSA; type: in vivo, Digitaria sanguinalis; details: visual scoring after about 3 weeks vs untreated controls
Procedure, shortened: as §4

[29] = system: DIGSA; experiment: Pre-emergence action against DIGSA, 1280 g/ha; type: in vivo, Digitaria sanguinalis; details: visual scoring after about 3 weeks vs untreated controls, 100% = plants have died, 0% = like control plants
Procedure, shortened: as §3

[30] = system: ABUTH; experiment: Post-emergence action against ABUTH, 1.28 kg/ha; type: in vivo, Abutilon theophrasti; details: dosage 1280 g/ha, visual rating about 3 weeks after treatment vs untreated controls (100% = plants died)
Procedure, shortened: as §2

[31] = system: MATIN; experiment: Pre-emergence action at 320 g/ha against MATIN; type: in vivo, Tripleurospermum inodorum (Matricaria inodora); details: visual scoring after about 3 weeks vs untreated controls
Procedure, shortened: as §4

[32] = system: POLCO; experiment: Pre-emergence action at 320 g/ha against POLCO; type: in vivo, Fallopia convolvulus (Polygonum convolvulus); details: visual scoring after about 3 weeks vs untreated controls
Procedure, shortened: as §4

CCOC(=O)COc1nn(-c2ccccc2C)c(-c2ccc(F)nc2)c1Br [VII-056-a]
Post-emergence action against SETVI in % [1]: 80%
Post-emergence action against AMARE [2]: 100%
Pre-emergence action against POAAN [3]: 100%
Post-emergence action against LOLRI [4]: 100%
Pre-emergence action against STEME [5]: 100%
Post-emergence action at 320 g/ha against ECHCG in % [6]: 80%
Pre-emergence action against SETVI [7]: 100%
Post-emergence action against ALOMY [8]: 90%
Pre-emergence action against ALOMY [9]: 90%
Post-emergence action against ALOMY [10]: 100%
Post-emergence action against DIGSA [11]: 100%
Pre-emergence action against MATIN [12]: 100%
Pre-emergence action against LOLRI in % [13]: 90%
Pre-emergence action against VERPE [14]: 100%
Pre-emergence action at 320 g/ha against ALOMY in % [15]: 100%
Pre-emergence action against AVEFA in % [16]: 90%
Pre-emergence action against VERPE in % [17]: 100%
Post-emergence action against VERPE [18]: 100%
Post-emergence action against POAAN [19]: 100%
Post-emergence action against MATIN [20]: 100%
Pre-emergence action against AMARE [21]: 100%
Pre-emergence action against LOLRI [22]: 90%
Pre-emergence action against AMARE in % [23]: 100%
Post-emergence action against ECHCG [24]: 100%
Pre-emergence action against ECHCG [25]: 100%
Post-emergence action against SETVI [26]: 100%
Pre-emergence action against VIOTR in % [27]: 100%
Pre-emergence action against DIGSA in % [28]: 100%
Pre-emergence action against DIGSA [29]: 100%
Post-emergence action against ABUTH [30]: 90%
Pre-emergence action against MATIN in % [31]: 80%
Pre-emergence action against POLCO in % [32]: 90%
